Source: patent EP0099121A2, “Pharmaceutical compositions” (Bristol-Myers Company, priority 1982, dated 1984)
Like-named read-outs stand apart in the source and are kept apart here.

Assays:
[1] = system: Gastric Acid Output; assay: Gastric antisecretory activity in the Gastric Fistula Rat (Table 2 title: Two-Hour Pylorus Ligated Rat); format: in vivo, Long Evans rats; conditions: numbers in parentheses are the 95% confidence limits
Experimental: Male Long Evans rats weighing about 240-260 grams at the time of cannula implantation are used. The design and implantation of the stainless steel cannula into the anterior wall of the fore-stomach are carried out essentially as described by Pare et al. [Laboratory Animal Science, 27, 244 (1977)]. The fistula components are designed and the operative procedure is carried out exactly as described in the above reference. Post operatively the animals are individually housed in solid bottom cages with sawdust and are allowed food and water ad libitum throughout the entire recovery period. Animals are not used for test purposes for at least 15 days after the operative procedure.
The animals are fasted but allowed water ad libitum for 20 hours before the testing procedure is to begin. Immediately prior to collection, the cannula is opened and the stomach washed gently with 30-40 mL of warm saline or distilled water to remove any residual contents. The catheter is then screwed into the cannula in place of the plugging screw and the rat is placed in a clear plastic rectangular cage measuring 40 cm long, 15 cm wide and 13 cm high. The bottom of the cage has a slit approximately 1.5 cm wide and 25 cm long running down the center to accommodate the catheter which hangs through it. In this way the rat is not restricted and can move freely about the cage during collection periods. The remainder of the assay is carried out as described by Ridley et al. [Research Comm. Chem. Path. Pharm., 17, 365 (1977)].
Gastric secretions collected during the first hour after washing the stomach are discarded as they may be contaminated. For oral evaluation, the catheter is then removed from the cannula and replaced with the plugging screw. Water (2 mL/kg) is administered orally via gastric intubation and the animal is returned to the cage for 45 minutes. After this time the plugging screw is removed and replaced with a catheter to which a small plastic vial has been attached to collect the gastric secretions. A two hour sample is collected (this represents the control secretion), the catheter removed and replaced with the plugging screw. The test drug is now administered orally in a volume of 2 mL/kg via gastric intubation. Forty-five minutes later the plugging screw is again removed, replaced with the catheter attached to a small plastic vial and another 2 hour sample is collected. The secretions in the second sample are compared to those of the control sample in order to determine the effects of the test drug.
When test compounds are to be evaluated parenterally, the animal is injected ip or sc with the test compound vehicle in a volume of 2 mL/kg immediately after discarding the initial 60 minute collection. A two hour sample is collected (control secretion) and the animals are injected either ip or sc with the test compound in a volume of 2 mL/kg. An additional two hour sample is collected and its secretions are compared to those of the control period to determing drug effects.
The samples are centrifuged in a graduated tube for volume determination. Titratable acidity is measured by titrating a one mL sample to pH 7.0 with 0.02N NaOH, using an Autoburet and an electrometric pH meter (Radiometer). Titratable acid output is calculated in microequivalents by multiplying the volume in milliliters by the acid concentration in milliequivalents per liter.
(§1) Results are expressed as percent inhibition relative to control readings. Dose response curves are constructed and ED values are calculated by regression analyses. At least three rats are used at each dosage level and a minimum of three dosage levels are utilized for determination of a dose response curve.

[2] = system: acid output; assay: Gastric antisecretory activity in the Heidenhain Pouch Dog; format: in vivo, dogs; conditions: for Potency Ratio (cimetidine = 1.0): oral
Experimental: Prior to surgery, hematology and blood chemistry profiles are obtained and an assessment made as to the general health of selected female dogs. Dogs are vaccinated with Tissue Vax 5 (DHLP - Pitman-Moore) and housed in general animal quarters for four weeks' observation so incipient diseases may become apparent. Dogs are fasted with water ad libitum 24 hours prior to surgery.
Anesthesia is induced with Sodium Pentothal (Abbott) 25-30 mg/kg iv. Subsequent anesthesia is maintained with methoxy- flurane (Pitman-Moore). A mid-line linea alba incision from xiphoid to umbilicus provides good exposure and ease of closure. The stomach is pulled up into the operative field, the greater curvature stretched out at multiple points and clamps placed along the selected line of incision. The pouch is made from the corpus of the stomach so that true parietal cell juice is obtained. About 30% of the corpus volume is resected. The cannula is made of light-weight, biologically-inert material such as nylon or Delrin with dimensions and attachments after DeVito and Harkins [J. Appl. Physiol., 14, 138 (1959)]. Post operatively, dogs are medicated with antibiotics and an analgesic. They are allowed 2-3 months for recovery. Experiments are carried out in the following way: Dogs are fasted overnight (~18 hours) with water ad libitum prior to each experiment. The dogs are placed in a sling and a saphenous vein cannulated for drug administration. Histamine as the base (100 ug/kg/hr) and chlorpheniramine maleate (0.25 mg/kg/hr) are infused continuously (in a volume of 6 mL/hr) with a Harvard infusion pump.
Ninety minutes' infusion are allowed for the dogs to reach a steady state of acid output. At this time the drug or normal saline (control) is administered concomitantly with the secretagogue in a volume of 0.5 mL/kg over a 30 second period. When oral studies are to be carried out, the drug is administered via gastric gavage in a volume of 5 mL/kg. Infusion of the secretagogue is continued and 15 minute samples of.the gastric juice are taken for 4.5 hours. Each sample is measured to the nearest 0.5 mL and titratable acidity is determined by titrating a 1 mL sample to pH 7.0 with 0.2N NaOH, using an Autoburet and an electrometric pH meter (Radiometer). Titratable acid output is calculated in microequivalents by multiplying the volume in milliliters by the acid concentration in milliequivalents per liter.
as §1, with “and ED50” for “and ED”, “analyses. From 3 to 5 dogs” for “analyses. At least three rats”, “each dose” for “each dosage”

[3] = system: pepsin; conditions: gastric ulcer; cited from earlier work
[4] = system: ulcer formation; conditions: two or more days of pretreatment, single agent; cited from earlier work
[5] = system: gastric acid secretion; conditions: normal volunteers and patients with duodenal ulcer; cited from earlier work
[6] = Rattus norvegicus, sc, Route of Administration s.c., read-out: ED50
[7] = Rattus norvegicus, ip, Route of Administration i.p., read-out: ED50

Compound: NC1=NS(=O)(=O)N=C1NCCCOc1cccc(CN2CCCC2)c1 [146 a]
- ED50 ([1]; Route of Administration s.c.): 0.023 (0.0091-0.046) μmoles/kg
- Potency Ratio (cimetidine = 1.0) [2]: ~20

Compound: CN(C)Cc1cccc(OCCCNc2n[s+]([O-])nc2N)c1 (centres unmarked) [Example 118, 3-Amino-4-[3-(3-dimethylaminomethylphenoxy)propylamino]-1,2,5-thiadiazole 1-oxide]
- ED50 [1, 6]: 0.066 µmol/kg
- Potency Ratio (cimetidine = 1.0) [2]: 10

Compound: [O-][s+]1nc(NCCCOc2cccc(CN3CCCCC3)c2)c(NCc2cccnc2)n1 (centres unmarked) [Example 149, 3-[(3-Pyridyl)methylamino]-4-[3-(3-piperidinomethylphenoxy)-proavlamino]-1,2,5-thiadiazole1-oxide]
- ED50 [1, 6]: ~0.08 µmol/kg
- Potency Ratio (cimetidine = 1.0) [2]: 10

Compound: NC(N)=Nc1nc(CSCCNC2=NS(=O)(=O)N=C2N)cs1 [Example 35, 3-Amino-4-{2-[(2-guanidinothiazol-4-yli)methylthio]ethyl-amino}-1,2,5-thiadiazole 1,1-dioxide]
- ED50 [1, 6]: 0.08 µmol/kg
- Potency Ratio (cimetidine = 1.0) [2]: 20

Compound: sucralfate
- benefit in patients with gastric ulcer [3]: none

Compound: CNC1=NS(=O)(=O)N=C1NCCSCc1ccc(CN(C)C)s1 [Example 65, 3-{2-[(5-Dimethylaminomethyl-2-thienyl)methylthio]ethyl-amino}-4-methylamino-1,2,5-thiadiazole 1,I-dioxide]
- ED50 [1, 6]: 0.07 µmol/kg
- Potency Ratio (cimetidine = 1.0) [2]: 10

Compound: CC1(C)[C@@H](OC(=O)CCC(=O)O)CC[C@]2(C)[C@H]3C(=O)C=C4[C@@H]5C[C@@](C)(C(=O)O)CC[C@]5(C)CC[C@@]4(C)[C@]3(C)CC[C@@H]12 [carbenoxolone]
- ulcer formation [4]: significantly decreased ulcer formation

Compound: CCNC1=NS(=O)(=O)N=C1NCCSCc1ccc(CN(C)C)o1 [Example 12, 3-{2-[(5-Dimethylaminomethyl-2-furyl)methylthio]ethyl-amino]-4-ethylamino-1,2,5-thiadiazole 1,1-dioxide]
- ED50 [1, 7]: 0.28 µmol/kg
- Potency Ratio (cimetidine = 1.0) [2]: 10

Compound: CNc1n[s+]([O-])nc1NCCSCc1ccc(CN(C)C)o1 (centres unmarked) [Example 18, 3-{2-[(5-Dimethylaminomethyl-2-furyl)methylthio]ethylamino}-4-methylamino-1,2,5-thiadiazole 1-oxide]
- ED50 [1, 6]: 0.38 µmol/kg
- Potency Ratio (cimetidine = 1.0) [2]: 18

Compound: CN/C(=N/CCSCc1nc[nH]c1C)NC#N [cimetidine]
- ulcer formation [4]: significantly decreased ulcer formation
- ED50 ([2]; Canis lupus familiaris, po, read-out: oral ED50): ~3.3 µmol/kg
- basal and stimulated gastric acid secretion [5]: antagonize both basal and stimulated gastric acid secretion

Compound: CNC1=NS(=O)(=O)N=C1NCCSCc1csc(NC(=N)N)n1 [Example 31, 3-{2-[(2-Guanidinothiazol-4-yl)methylthio)ethylamino}-4-methylamino-1,2,5-thiadiazole 1,1-dioxide]
- ED50 [1, 7]: 0.41 µmol/kg
- Potency Ratio (cimetidine = 1.0) [2]: 13

Compound: CN(C)Cc1ccc(CSCCNC2=NS(=O)(=O)N=C2NCCSCc2ccc(CN(C)C)o2)o1 [11 B]
- ED50 ([1]; Route of Administration i.p.): 0.69 (0.31-1.33) μmoles/kg
- Potency Ratio (cimetidine = 1.0) [2]: 11

Compound: C#CCN(C)Cc1ccc(CSCCNC2=NS(=O)(=O)N=C2NC)o1 [Example 14, 3-Methylamino-4-{2-[(5-([N-methyl-N-(2-propynyl)amino]-methyl}-2-furyl)methylthio]ethylamino}-12,5-thiadiazole 1,1-dioxide]
- ED50 [1, 6]: ~25 µmol/kg

Compound: CN=C(NC)Nc1nc(CSCCNc2n[s+]([O-])nc2N)cs1 (centres unmarked) [Example 120, 3-Amino-4-{2-[(2-{2,3-dimethylguanidino}thiazol-4-yl)-methylthio]ethylamino}-1,2,5-thiadiazole I-oxide]
- ED50 [1, 6]: ~5 µmol/kg

Compound: NC(N)=Nc1ncc(CSCCNc2n[s+]([O-])nc2N)s1 (centres unmarked) [Example 96, 3-Psnino-4-{2-[(2-guanidinothiazol-5-yl)methylthio]-ethylamino}-1,2,5-thiadiazole 1-oxide]
- ED50 [1, 6]: ~15 µmol/kg
